# Assay results taken from US9611277B2 (Janssen Pharmaceutica NV, priority 2013, dated 2017).
# Like-named read-outs stand apart in the source and are kept apart here.
# Experiments:
# human orexin 2 receptor = human orexin 2 receptor (Homo sapiens (Human), UniProt O43614); test: Human orexin 2 receptor radioligand binding; settings: human orexin 2 receptor; averages of 2-20 runs; read-out: hOX2 Ki
# Protocol: (§1) Data are analyzed using pc-Sandy macro and graphed on Graphpad Prism 5. For analysis, each concentration point is averaged from triplicate values and the averaged values are plotted on Graphpad Prism. The IC50 was determined by applying the following equation (GraphPad Prism 5.0, SanDiego) for one site competition where X=log (concentration) and Y=specific binding. Top denotes the total [^3H]-(1-(5-(2-fluoro-phenyl)-2-methyl-thiazol-4-yl)-1-((S)-2-(5-phenyl-(1,3,4)oxadiazol-2-ylmethyl)-pyrrolidin-1-yl)-methanone) binding, bottom denotes the nonspecific [^3H]-(1-(5-(2-fluoro-phenyl)-2-methyl-thiazol-4-yl)-1-((S)-2-(5-phenyl-(1,3,4)oxadiazol-2-ylmethyl)-pyrrolidin-1-yl)-methanone) binding. Graphpad Prism calculates Ki value from IC50 and the pre-determined Kd values for [^3H]-(1-(5-(2-fluoro-phenyl)-2-methyl-thiazol-4-yl)-1-((S)-2-(5-phenyl-(1,3,4)oxadiazol-2-ylmethyl)-pyrrolidin-1-yl)-methanone) and [3H]-EMPA. The Ki for each compound is then uploaded into 3DX. Each run comprises individual compounds in triplicate. The data in Table 1 and Table 2 represent averages from between 2-20 runs
# Human Orexin 2 Receptor Radioligand Binding Studies
# HEK293 stably expressing human orexin 2 receptor (Genebank accession number NM_001526) were grown to confluency in DMEM (Hyclone, cat # SH30022), 10% FBS, 1× Pen/Strep, 1× NaPyruvate, 10 mM HEPES, 600 ug/ml G418 media on 150 cm^2 tissue culture plates, washed with 5 mM EDTA in PBS (HyClone Dulbecco's Phosphate Buffered Saline 1× with Calcium and Magnesium, Cat # SH30264.01, hereafter referred to simply as PBS) and scraped into 50 ml tubes. After centrifugation (2K×G, 5 min at 4° C.), the supernatant was aspirated and the pellets frozen and stored at −80° C. […] Each cell pellet from a 15 cm plate was resuspended in 10 mL, stored on ice, and homogenized for 45 sec just prior to addition to the reactions. […] The final concentration of DMSO in the reactions is equal to or less than 0.1%. Total and nonspecific binding was determined in the absence and presence of 10 μM almorexant. The total volume of each reaction is 200 μL (20 μL of diluted compounds, 80 μL of [^3H]-EMPA diluted in PBS and 100 μL of the cell suspension). […] The plates were washed 3 times by aspirating 30 ml PBS through the plates. Plates were dried in 55° C. oven for 60 min, scintillation fluid was added, and the radioactivity was counted on a Topcount (Packard).
# rat orexin 1 receptor = rat orexin 1 receptor (Rattus norvegicus, UniProt P56718); test: Rat orexin 1 receptor radioligand binding; settings: read-out: rOX1 Ki
# Protocol: as §1
# (§2) Rat and Human Orexin 1 Receptor Radioligand Binding Studies
# (§3) After centrifugation (2K×G, 5 min at 4° C.), the supernatant was aspirated and the pellets frozen and stored at −80° C. […] Each cell pellet from a 15 cm plate was resuspended in 10 mL, stored on ice, and homogenized for 45 sec prior to addition to the reactions. […] The final concentration of DMSO in the reactions is equal to or less than 0.1%. Total and nonspecific binding was determined in the absence and presence of 10 μM almorexant. The total volume of each reaction is 200 μL (20 μL of diluted compounds, 80 μL of [^3H]-(1-(5-(2-fluoro-phenyl)-2-methyl-thiazol-4-yl)-1-((S)-2-(5-phenyl-(1,3,4)oxadiazol-2-ylmethyl)-pyrrolidin-1-yl)-methanone) diluted in PBS and 100 μL of the cell suspension). […] The plates were washed 3 times by aspirating 30 ml PBS through the plates. Plates were dried in 55° C. oven for 60 min, scintillation fluid was added, and the radioactivity was counted on a Topcount (Packard).
# human orexin 1 receptor = human orexin 1 receptor (Homo sapiens, UniProt O43613); test: Human orexin 1 receptor radioligand binding; settings: read-out: hOX1 Ki
# Protocol: as §1, §2, §3
# [1] = rat orexin 1 receptor, averages of 2-20 runs
# [2] = human orexin 1 receptor, averages of 2-20 runs
# human orexin 2 receptor, sequence (O43614 whole entry): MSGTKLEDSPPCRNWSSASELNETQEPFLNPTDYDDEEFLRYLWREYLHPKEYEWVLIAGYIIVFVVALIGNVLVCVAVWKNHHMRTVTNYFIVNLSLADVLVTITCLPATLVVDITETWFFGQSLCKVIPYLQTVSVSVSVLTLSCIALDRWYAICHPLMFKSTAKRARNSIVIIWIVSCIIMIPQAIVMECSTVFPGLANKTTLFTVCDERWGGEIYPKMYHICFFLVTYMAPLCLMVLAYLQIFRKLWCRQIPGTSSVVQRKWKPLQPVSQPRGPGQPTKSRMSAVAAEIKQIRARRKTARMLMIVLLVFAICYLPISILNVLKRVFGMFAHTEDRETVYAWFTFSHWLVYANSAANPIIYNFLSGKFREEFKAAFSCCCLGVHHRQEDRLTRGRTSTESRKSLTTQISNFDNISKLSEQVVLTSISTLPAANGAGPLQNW
Ki (human orexin 2 receptor) [nM],Ki (rat orexin 1 receptor; [1]) [nM],Ki (human orexin 1 receptor; [2]) [nM],SMILES,Ki (rat orexin 1 receptor) [nM],Ki (human orexin 1 receptor) [nM]
779,25,18,"Cc1nc(C(=O)N2CC3CC(Oc4ccc(C(F)(F)F)cn4)C2C3)c(-c2ccc(F)cc2)s1 (racemic) [Example 5, (R/S)-(5-(4-fluorophenyl)-2-methylthiazol-4-yl)(6-((5-(trifluoromethyl)pyridin-2-yl)oxy)-2-azabicyclo[2.2.1]heptan-2-yl)methanone]",,
,22,24,"O=C(c1ccc(F)cc1-c1ncccn1)N1CC2CCC1C(Oc1ccc(C(F)(F)F)cn1)C2 (racemic) [Example 250, (R/S)-(4-fluoro-2-(pyrimidin-2-yl)phenyl)(6-((5-(trifluoromethyl)pyridin-2-yl)oxy)-2-azabicyclo[2.2.2]octan-2-yl)methanone]",,
,18,11,"O=C(c1ccccc1-c1ncc(F)cn1)N1CC2CCC1C(Oc1ccc(C(F)(F)F)cn1)C2 (racemic) [Example 251, (R/S)-(2-(5-fluoropyrimidin-2-yl)phenyl)(6-((5-(trifluoromethyl)pyridin-2-yl)oxy)-2-azabicyclo[2.2.2]octan-2-yl)methanone]",,
741,21,24,"O=C(c1cccc(F)c1-c1ncccn1)N1CC2CCC1C(Nc1cnc(C(F)(F)F)cn1)C2 (racemic) [Example 257, (R/S)-(3-fluoro-2-(pyrimidin-2-yl)phenyl)(6-((5-(trifluoromethyl)pyrazin-2-yl)amino)-2-azabicyclo[2.2.2]octan-2-yl)methanone]",,
2600,26,17,"O=C(c1ccc(F)cc1-c1ncccn1)N1CC2CCC1C(Nc1cnc(C(F)(F)F)cn1)C2 (racemic) [Example 258, (R/S)-(4-fluoro-2-(pyrimidin-2-yl)phenyl)(6-((5-(trifluoromethyl)pyrazin-2-yl)amino)-2-azabicyclo[2.2.2]octan-2-yl)methanone]",,
2330,,39,"O=C(c1ccc(F)cc1-n1nccn1)N1C[C@H]2C[C@@H](Oc3ccc(C(F)(F)F)cn3)[C@@H]1C2 [Example 44, (4-fluoro-2-(2H-1,2,3-triazol-2-yl)phenyl)((1S,4R,6R)-6-((5-(trifluoromethyl)pyridin-2-yl)oxy)-2-azabicyclo[2.2.1]heptan-2-yl)methanone]",,
903,4,5,"O=C(c1cccc(F)c1-c1ncccn1)N1C[C@H]2C[C@@H](Oc3ccc(Br)cn3)[C@@H]1C2 [Example 48, ((1S,4R,6R)-6-((5-bromopyridin-2-yl)oxy)-2-azabicyclo[2.2.1]heptan-2-yl)(3-fluoro-2-(pyrimidin-2-yl)phenyl)methanone]",,
443,,5,"O=C(c1ccccc1-n1nccn1)N1C[C@H]2C[C@@H](Oc3ccc(Br)cn3)[C@@H]1C2 [Example 49, (2-(2H-1,2,3-triazol-2-yl)phenyl)((1S,4R,6R)-6-((5-bromopyridin-2-yl)oxy)-2-azabicyclo[2.2.1]heptan-2-yl)methanone]",,
193,5,3,"O=C(c1cc(F)ccc1-c1ncccn1)N1C[C@H]2C[C@@H](Nc3ccc(C(F)(F)F)cn3)[C@@H]1C2 [Example 58, (5-fluoro-2-(pyrimidin-2-yl)phenyl)((1S,4S,6R)-6-((5-(trifluoromethyl)pyridin-2-yl)amino)-2-azabicyclo[2.2.1]heptan-2-yl)methanone]",,
,8,7,"O=C(c1cc(F)ccc1-c1ncccn1)N1C[C@H]2C[C@@H](Nc3ccc(Cl)cn3)[C@@H]1C2 [Example 172, ((1S,4S,6R)-6-((5-chloropyridin-2-yl)amino)-2-azabicyclo[2.2.1]heptan-2-yl)(5-fluoro-2-(pyrimidin-2-yl)phenyl)methanone]",,
,16,19,"O=C(c1ccc(F)cc1-c1ncccn1)N1C[C@@H]2CC[C@H]1[C@H](Oc1ccc(C(F)(F)F)cn1)C2 [Example 259, (4-fluoro-2-(pyrimidin-2-yl)phenyl)((1S,4R,6R)-6-((5-(trifluoromethyl)pyridin-2-yl)oxy)-2-azabicyclo[2.2.2]octan-2-yl)methanone]",,
,10,10,"O=C(c1ccccc1-c1ncc(F)cn1)N1C[C@@H]2CC[C@H]1[C@H](Oc1ccc(C(F)(F)F)cn1)C2 [Example 262, (2-(5-fluoropyrimidin-2-yl)phenyl)((1S,4R,6R)-6-((5-(trifluoromethyl)pyridin-2-yl)oxy)-2-azabicyclo[2.2.2]octan-2-yl)methanone]",,

# Continued, compound first:
SMILES,Ki (human orexin 2 receptor) [nM],Ki (rat orexin 1 receptor; [1]) [nM],Ki (human orexin 1 receptor; [2]) [nM],Ki (rat orexin 1 receptor) [nM],Ki (human orexin 1 receptor) [nM]
"Cc1cccc(C(=O)N2CC3CCC2C(Nc2cnc(C(F)(F)F)cn2)C3)c1-n1nccn1 (racemic) [Example 256, (R/S)-(3-methyl-2-(2H-1,2,3-triazol-2-yl)phenyl)(6-((5-(trifluoromethyl)pyrazin-2-yl)amino)-2-azabicyclo[2.2.2]octan-2-yl)methanone]",348,20,10,,
"Cc1ccc(C(=O)N2C[C@H]3C[C@@H](Oc4ccc(C(F)(F)F)cn4)[C@@H]2C3)c(-n2ccnn2)n1 [Example 34, (6-methyl-2-(1H-1,2,3-triazol-1-yl)pyridin-3-yl)((1S,4R,6R)-6-((5-(trifluoromethyl)pyridin-2-yl)oxy)-2-azabicyclo[2.2.1]heptan-2-yl)methanone]",,162,368,,
"O=C(c1c(F)cccc1-c1ncccn1)N1C[C@H]2C[C@@H](Oc3ccc(Br)cn3)[C@@H]1C2 [Example 47, ((1S,4R,6R)-6-((5-bromopyridin-2-yl)oxy)-2-azabicyclo[2.2.1]heptan-2-yl)(2-fluoro-6-(pyrimidin-2-yl)phenyl)methanone]",,6,9,,
"Cc1ccc(-n2nccn2)c(C(=O)N2C[C@H]3C[C@@H](Oc4ccc(Br)cn4)[C@@H]2C3)n1 [Example 50, ((1S,4R,6R)-6-((5-bromopyridin-2-yl)oxy)-2-azabicyclo[2.2.1]heptan-2-yl)(6-methyl-3-(2H-1,2,3-triazol-2-yl)pyridin-2-yl)methanone]",578,,10,,
"O=C(c1ccccc1-n1nccn1)N1C[C@H]2C[C@@H](Nc3ccc(C(F)(F)F)cn3)[C@@H]1C2 [Example 53, (2-(2H-1,2,3-triazol-2-yl)phenyl)((1S,4S,6R)-6-((5-(trifluoromethyl)pyridin-2-yl)amino)-2-azabicyclo[2.2.1]heptan-2-yl)methanone]",,,4,,
"Cc1ccc(-n2nccn2)c(C(=O)N2C[C@H]3C[C@@H](Nc4ccc(C(F)(F)F)cn4)[C@@H]2C3)n1 [Example 54, (6-methyl-3-(2H-1,2,3-triazol-2-yl)pyridin-2-yl)((1S,4S,6R)-6-((5-(trifluoromethyl)pyridin-2-yl)amino)-2-azabicyclo[2.2.1]heptan-2-yl)methanone]",,,,6,5
"O=C(c1ccccc1-n1nccn1)N1C[C@H]2C[C@@H](Nc3cnc(C(F)(F)F)cn3)[C@@H]1C2 [Example 59, (2-(2H-1,2,3-triazol-2-yl)phenyl)((1S,4S,6R)-6-((5-(trifluoromethyl)pyrazin-2-yl)amino)-2-azabicyclo[2.2.1]heptan-2-yl)methanone]",192,,7,,
"O=C(c1ccccc1-n1nccn1)N1C[C@H]2C[C@@H](Nc3ncc(C(F)(F)F)cn3)[C@@H]1C2 [Example 60, (2-(2H-1,2,3-triazol-2-yl)phenyl)((1S,4S,6R)-6-((5-(trifluoromethyl)pyrimidin-2-yl)amino)-2-azabicyclo[2.2.1]heptan-2-yl)methanone]",617,20,12,,
